In one data set the test system is AhR reporter. Put plainly: AhR reporter assay. The format is cell-based. The settings on record: FIG. 14. In general terms: Reporter assays use an easily measured gene product as a stand-in for the process of interest.
In another data set the test system is MODE-K cells. Put plainly: MODE-K cells stimulated with compounds, Mttp and Cxcl16 transcripts by qPCR. The format is cell-based, mouse. The settings on record: for Cxcl16 transcript expression / Mttp transcript expression: MODE-K cells, 48 hours, qPCR normalized to β-actin; for Transcriptional pattern of NKT signature genes (Mttp, Cxcl16): MODE-K epithelial cells. The procedure:
Mode-K cells were stimulated for 48 hours with the listed compounds and MUT) (2A) and Cxcl16 (2B) transcript express was quantified by qPCR normalized to β-actin, a housekeeping gene. Graph color coded to indicate control, OxC, and ITE compounds. […]
Kinetic transcript profiles of Mttp, Cxcl16, CD1d, and Hsp110 are assessed by qPCR normalizing transcript abundance to house keeping gene, (3-actin. Protein expression is quantified by immunoblot (MTTP, HSP110) or ELISA (CXCL16). CD1d protein expression is monitored using monoclonal antibodies conjugated to phycoerythrin and fluorescein isothyocynate to assess CD1d trafficking to and from the cell surface.[89]Stimulatory ligands are washed out prior to administration of αGC, and conditioned cells are co-cultured over night with 4 classes of invariant (DN32.D3, 24.7, 24.8) or non-variant (14S.6) to assess αGC specific and autoreactive responses to epithelial and myeloid cell lipid presentation. Production of IL-10, IL-4, IL-13, IFNγ response to epithelial and myeloid, and the source of cytokine production (APC or NKT) are determined using gluteraldehyde fixation. Primary iNKT cells are isolated from colonic lamina propria or peripheral organs (liver, spleen, mesenteric lymph node) and purified by FACS (BD ARIA-II Sorter) using monoclonal antibodies against CD45, TCRI3, CD3E, and CD1d:αGC loaded tetramer (APC conjugated) and exclusion of unloaded CD1d tetramer (PE). […] Strand specific libraries are generated using 500 ng RNA input and subject to paired-end 100 bp read sequencing using a HISEQ2000 at the Dana Farber Cancer Institute. Sequence reads are aligned to the mouse mm10 reference genome using Tophat alignments restricted to uniquely mapping reads with <2 possible mismatches permitted. […] Candidate transcripts arevalidated in primary IECs (EpCAM+ CD45−) or mucosal APCs by qPCR.
On the technique in general: Real-time PCR tracks product formation cycle by cycle.

The subject of a further data set is 24.7 NKT hybridoma. Put plainly: Compound-conditioned MODE-K cells incubated with alpha-galactosylceramide, co-cultured with 24.7 iNKT hybridoma, IL-10 by ELISA. The settings on record: MODE-K conditioned with compound or lysate, αGC presented on CD1d. The format is cell-based, mouse. The method, then: FIGS. 3A-3B depict in accordance with an embodiment of the invention, (3A) MODE-K cells transfected with control- or AhR-targeted siRNA. After 48 hours, these cells were stimulated with the compounds indicated for 48 hours. Cells were washed and incubated with alpha-galactosylceramide and subsequently co-cultured with the 24.7 NKT hybridoma. IL-10 production was measured by ELISA. (3B) Hepatocytes from WT or AhR-deficient mice were stimulated as in (3A).
FIGS. 7A-7B depict in accordance with an embodiment of the invention, (7A) structure of the OxC compound, B17 microcin. […] Cells were incubated with aGC and co-cultured with24.7 iNKT hybridoma and IL-10 production was measured. “[…]”, “G2QG2”, “GGNG”, and “GSHI” are disclosed as SEQ ID NO: 3, SEQ ID NO: 6, SEQ ID NO: 5, and SEQ ID NO: 2, respectively.
Kinetic transcript profiles of Mttp, Cxcl16, CD1d, and Hsp110 are assessed by qPCR normalizing transcript abundance to house keeping gene, (3-actin. Protein expression is quantified by immunoblot (MTTP, HSP110) or ELISA (CXCL16). CD1d protein expression is monitored using monoclonal antibodies conjugated to phycoerythrin and fluorescein isothyocynate to assess CD1d trafficking to and from the cell surface.[89]Stimulatory ligands are washed out prior to administration of αGC, and conditioned cells are co-cultured over night with 4 classes of invariant (DN32.D3, 24.7, 24.8) or non-variant (14S.6) to assess αGC specific and autoreactive responses to epithelial and myeloid cell lipid presentation. Production of IL-10, IL-4, IL-13, IFNγ response to epithelial and myeloid, and the source of cytokine production (APC or NKT) are determined using gluteraldehyde fixation. […] Strand specific libraries are generated using 500 ng RNA input and subject to paired-end 100 bp read sequencing using a HISEQ2000 at the Dana Farber Cancer Institute. Sequence reads are aligned to the mouse mm10 reference genome using Tophat alignments restricted to uniquely mapping reads with <2 possible mismatches permitted. […]
For orientation: ELISA stands for enzyme-linked immunosorbent assay.

A further data set concerns NFkB reporter. Put plainly: NFkB reporter assay. The format is cell-based. The settings on record: FIG. 14.
Data set [1] in a line: Colitis model: skin pre-sensitization, then intra-rectal administration. The format is in vivo, mice. The method, then:
Colitis scores were blindly performed by a pathologist.
Distal colon explants were cultured overnight and IL-10 (6A) and IL-13 (6B) production was measured by ELISA.
Changes in weight are monitored and colons harvested on day 3 and day 5 post-rectal challenge for histopathological analysis. Distalhyperemia in the mucosa, cellular infiltration in the lamina propria, elongation of colonic mucosa, epithelial erosion. The number of conventional T cells, NKT cells and mucosal APC subsets are enumerated by established flow cytometry protocols.[11] In addition, kinetic cytokine profiles are analyzed to verify that OxC colitis phenocopies molecular signatures associated with oxazolone colitis. […] [8] In addition, colonic IECs and lamina propria mononuclear cells are sorted by FACS and analyzed for Mttp and Cxcl16 expression by qPCR.

Data set [2] deals with AhR response elements (XRE). The settings on record: cited from earlier work.
For data set [3], the system named is AhR. Put plainly: AhR targets Cyp1a1 and IDO1 by qPCR in MODE-K cells with control or AhR-targeted siRNA. The format is cell-based, mouse. The settings on record: MODE-K cells or primary hepatocytes. The procedure:
FIGS. 8A-8C depict in accordance with an embodiment of the invention, MODE-K transfected with control or AhR-targeted siRNA. After 48 hours, MODE-K cells were stimulated with the indicated compounds. Cyp1a1 (8A) or IDO1 (8B, 8C) were quantified by qPCR.
Stimulation of MODE-K cells with OxC compounds but not control compounds differentially regulates two well characterized AhR targets: Cyp1a1,[68] and IDO1. [FIG. 8] Specific siRNA mediated knockdown of the AhR in MODE-K cells diminished expression of both AhR targets in response to OxC stimulation.

Data set [4] concerns the target T1, AhR (Homo sapiens, UniProt P35869).
T1 construct: endogenous in cells; host or cells: HepG2
T1 sequence (P35869 11-848): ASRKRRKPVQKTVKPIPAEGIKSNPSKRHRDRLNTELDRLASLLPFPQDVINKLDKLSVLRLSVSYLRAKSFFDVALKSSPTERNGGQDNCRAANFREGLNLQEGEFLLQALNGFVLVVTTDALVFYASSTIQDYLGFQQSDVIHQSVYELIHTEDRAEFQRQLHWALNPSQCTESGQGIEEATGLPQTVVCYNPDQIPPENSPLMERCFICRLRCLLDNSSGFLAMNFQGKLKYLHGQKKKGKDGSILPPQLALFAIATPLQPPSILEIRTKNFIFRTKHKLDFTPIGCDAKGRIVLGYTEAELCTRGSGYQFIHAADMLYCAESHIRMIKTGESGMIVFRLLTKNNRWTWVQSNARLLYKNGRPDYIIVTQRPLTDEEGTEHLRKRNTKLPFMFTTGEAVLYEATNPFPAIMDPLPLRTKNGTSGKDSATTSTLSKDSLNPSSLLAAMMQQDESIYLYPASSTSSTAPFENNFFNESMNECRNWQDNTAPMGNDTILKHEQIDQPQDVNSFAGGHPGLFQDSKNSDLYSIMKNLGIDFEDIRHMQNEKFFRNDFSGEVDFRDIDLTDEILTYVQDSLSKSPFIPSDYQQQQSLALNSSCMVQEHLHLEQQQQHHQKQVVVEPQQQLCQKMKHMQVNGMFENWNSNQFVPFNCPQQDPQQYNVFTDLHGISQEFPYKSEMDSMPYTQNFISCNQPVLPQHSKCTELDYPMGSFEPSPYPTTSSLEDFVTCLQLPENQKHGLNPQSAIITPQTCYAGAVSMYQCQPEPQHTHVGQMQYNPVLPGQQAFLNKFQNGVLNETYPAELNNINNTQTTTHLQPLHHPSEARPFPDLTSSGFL
The settings on record: hepatocyte reporter assay; cited from earlier work.

Data set [5] has as its target T2, aryl hydrocarbon receptor (AhR) (Homo sapiens, UniProt P35869).
T2 sequence (P35869 11-848): T1 sequence (P35869 11-848)
The settings on record: previous studies; cited from earlier work.

The mark [6] stands for this setting: compared to vehicle treated control animals.

Entries after “also recorded” stand apart in the source; their conditions may differ.

For the molecule `CC1=NC(C)OC1C` (stereo not shown) [TMO, 2,4,5-trimethyl-2,5-dihydro-1,3-oxazole], the AhR reporter activation entry in the data set on AhR reporter is recorded as “activate an AhR reporter”. Moreover, in the data set with MODE-K cells, the Cxcl16 transcript expression result is on record as “induce CXCL16” and the Mttp transcript expression entry was “suppress Mttp”. In addition, in the data set on 24.7 NKT hybridoma, the “IL-10 production by iNKT cells co-cultured with conditioned cells” value (from here on “IL-10 production”) is reported as “diminished; also recorded: inhibited IL-10 production”. Moreover, in the data set on NFkB reporter, the NFkB reporter activation result is “not an NFkB reporter”. In addition, in data set [1] (setting [6]), the “Colitis phenotype in vivo” value is given as “phenocopies the inflammation associated with oxazolone”; the Colon shortening entry is reported as “colon shortening”; the “Expression of Th2 cytokines” value is listed as “expression of Th2 cytokines characteristic of ulcerative colitis”; the “Histopathology, blind scoring by a pathologist” value is reported as “histopathology (based on blind scoring by a pathologist)”. The Weight loss entry in data set [1] (setting [6]) is reported as “increased weight loss”.
1-methyl-pyrroline [MP]: in the data set with MODE-K cells, the Cxcl16 transcript expression entry is recorded as “loss of these biological effects” and the Mttp transcript expression entry is “loss of these biological effects”.
In the case of `COC(=O)c1csc(C(=O)c2c[nH]c3ccccc23)n1` [ITE, 2-(1H-Indol-3-carbonyl)-4-thiazolecarboxylic acid methyl ester], the “Concentration activating XRE” value in data set [2] is recorded as “picomolar concentrations”.
Turning to `CC1CC(C)C(C)C1` (stereo not shown) [TMC, 1,2,4-trimethylcyclopentane], in the data set with MODE-K cells, the Cxcl16 transcript expression entry was “loss of these biological effects” and the Mttp transcript expression result is listed as “loss of these biological effects”.
On to `CCO/C=C1\N=C(c2ccccc2)OC1=O` [oxazolone, 4-ethoxymethylene-2-phenyl-oxazol-5-one], for which, in the data set on AhR [3], the “Expression of AhR targets Cyp1a1 and IDO1” value is reported as “modulates well-characterized AhR targets”. For the same molecule, in the data set on AhR reporter, the AhR reporter activation result is “activate an AhR reporter”. In the data set with MODE-K cells, the Cxcl16 transcript expression entry is reported as “induce CXCL16”; the Mttp transcript expression entry is “suppress Mttp”; the “Transcriptional pattern of NKT signature genes (Mttp, Cxcl16)” value is listed as “modulates specific gene targets involved in NKT cell biology”. Moreover, the “IL-10 production” value in the data set with 24.7 NKT hybridoma is “diminished; also recorded: inhibited IL-10 production”. In addition, the NFkB reporter activation entry with NFkB reporter was “not an NFkB reporter”. In addition, the “Oxazolone colitis in Vil-Cre+ X AhR fl/fl mice” value in data set [1] (3% presensitization, 1% intra-rectal, epithelial AhR deficiency) was “protected against oxazolone colitis”.
Regarding `C=CC1(C)OC(=O)N(c2cc(Cl)cc(Cl)c2)C1=O` (stereo not shown) [Vinclozolin, vinclozolin], the “AhR activation in HepG2” value at AhR [4] is “AhR activator”. For the same molecule, the “Transcriptional pattern of NKT signature genes (Mttp, Cxcl16)” value in the data set with MODE-K cells was “demonstrates a similar transcriptional pattern”. The “Cellular responses (transcriptional changes and NKT responses)” value in the data set on MODE-K cells (preliminary experiments, FIGS. 2, 3) was “elicit similar cellular responses as oxazolone and TMO”. The AhR ligand status result in data set [5] was “ligand for the aryl hydrocarbon receptor (AhR)”. For the same molecule, the “IL-10 production” value in the data set on 24.7 NKT hybridoma is “exerts modulatory effects on iNKT cell responses similar oxazolone”.

(Values after patent US20190225683A1, “TARGETING OXAZOLE STRUCTURES FOR THERAPY AGAINST INFLAMMATORY DISEASES” (THE BRIGHAM AND WOMEN'S HOSPITAL, INC., priority 2015, published 2019).)
